Measured values taken from article PMC5053523, “In Vitro Antibacterial Activity of Rhodanine Derivatives against Pathogenic Clinical Isolates” (PLoS ONE, 2016).
Where two headings read alike, the source gives them in different places.

Tests used:
[1] = system: vancomycin resistant enterococci (VRE) E. faecium; assay: Broth microdilution MIC/MBC, VRE E. faecium; assay type: cell-based; details: for MIC: read-out: MIC
[2] = system: methicillin-resistant Staphylococcus aureus (MRSA); assay: Broth microdilution MIC/MBC, MRSA; assay type: cell-based
[3] = system: B. cereus; assay: Broth microdilution MIC/MBC, B. cereus; assay type: cell-based; details: Bacillus cereus; for MBC: read-out: MBC; for MIC: read-out: MIC
Text: The broth microdilution technique was used, followed by subculturing on agar plates that were rhodanine—free.

[4] = system: Bacillus Strains; assay: Broth microdilution MIC50/MIC90 and MIC range, Bacillus strains panel; assay type: cell-based, Bacillus spp.; details: 10 Bacillus strains
Text: The broth microdilution technique was used, followed by subculturing on agar plates that were rhodanine—free. […] The MICs reported represent the lowest concentration of each compound necessary to inhibit bacterial growth and the MBCs represent the lowest concentration required to reduce the initial bacterial inoculum by ≥ 99.9%.

[5] = system: Mycobacterium smegmatis; assay: Broth microdilution MIC/MBC, Mycobacterium smegmatis; assay type: cell-based; details: Mycolicibacterium smegmatis, ATCC14468, M. Smegmatis ATCC 14468
[6] = system: P. aeruginosa; assay: Broth microdilution MIC, P. aeruginosa; assay type: cell-based; details: Pseudomonas aeruginosa
[7] = system: K. pneumoniae; assay: Broth microdilution MIC, K. pneumoniae; assay type: cell-based
[8] = system: Candida albicans; assay: MIC against Candida albicans; assay type: cell-based; details: table prints none, read-out: MIC
[9] = system: Acinetobacter baumannii; assay: MIC with/without sub-MIC colistin, Acinetobacter baumannii; assay type: cell-based
Method in brief: (§1)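 Rhodanines and control antibiotics are tested for MIC against Gram-negative bacteria while a sub-inhibitory level of colistin or PMBN is present. A strain of E. coli lacking the AcrAB efflux pump (SM1411ΔacrAB) serves as an additional test organism.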

[10] = system: Escherichia coli O157:H7; assay: MIC with/without sub-MIC colistin, Escherichia coli O157:H7; assay type: cell-based
Method in brief: as §1

[11] = system: Salmonella Typhimurium; assay: MIC with/without sub-MIC colistin, Salmonella Typhimurium; assay type: cell-based
Method in brief: as §1

[12] = system: Klebsiella pneumoniae; assay: MIC with/without sub-MIC colistin, Klebsiella pneumoniae; assay type: cell-based
Method in brief: as §1

[13] = system: Pseudomonas aeruginosa; assay: MIC with/without sub-MIC colistin, Pseudomonas aeruginosa; assay type: cell-based
Method in brief: as §1

[14] = system: Escherichia coli O157:H7; assay: MIC with/without PMBN, Escherichia coli O157:H7; assay type: cell-based
Method in brief: as §1

[15] = system: Pseudomonas aeruginosa; assay: MIC with/without PMBN, Pseudomonas aeruginosa; assay type: cell-based
Method in brief: as §1

[16] = system: Escherichia coli Δ acrAB; assay: MIC against E. coli 1411 and AcrAB efflux pump deficient E. coli SM1411Δ acrAB; assay type: cell-based
Method in brief: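 MIC of rhodanines and control antibiotics measured against Gram-negative bacteria in the presence of a sub-inhibitory concentration of colistin or polymixin B nonapeptide (PMBN). Activity was also tested against E. coli SM1411ΔacrAB, which lacks the AcrAB multidrug efflux pump.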

[17] = E. faecium HM 968 Strain ERV102
[18] = E. faecium NR31914 Strain E0120
[19] = E. faecium Patient #1–1 NR-31903
[20] = NRS201, B. cereus NRS 201 NR-2488

O=C(O)[C@H](Cc1ccccc1)N1C(=O)/C(=C/c2cccc(-c3ccc(Cl)c(Cl)c3)c2)SC1=S [Rh 2]
16 µM: MBC ([2]; MRSA NRS 107) | MBC ([2]; MRSA NRS 384)
> 256 µM: MIC ([14]; Escherichia coli, ATCC35150)
>64 µM: MIC ([9]; Acinetobacter baumannii ATCC BAA747, colistin (+) […], read-out: MIC) | MIC ([9]; Acinetobacter baumannii ATCC BAA19606, colistin (+) […], read-out: MIC) | MIC ([10]; Escherichia coli O157:H7 ATCC 35150, colistin (+) […], read-out: MIC) | MIC ([10]; Escherichia coli O157:H7 ATCC 700728, colistin (+) […], read-out: MIC) | MIC ([11]; Salmonella Typhimurium ATCC 700720, colistin (+) […], read-out: MIC) | MIC ([12]; Klebsiella pneumoniae ATCC BAA 2146, colistin (+) […]) | MIC ([13]; Pseudomonas aeruginosa ATCC 921, colistin (+) […], read-out: MIC) | MIC ([14]; Escherichia coli O157:H7 ATCC 700728, PMBN (+) 4 μg/mL, read-out: MIC) | MIC ([15]; Pseudomonas aeruginosa ATCC 9721, PMBN (+) 4 μg/mL, read-out: MIC)
8 µM: MIC ([1]; E. faecium E1071 NR-28978) | MIC ([2]; MRSA NRS 107) | MBC ([2]; MRSA NRS 386) | MBC ([5]; read-out: MBC) | MIC ([14]; Escherichia coli O157:H7 ATCC 35150, PMBN (+) 4 μg/mL, read-out: MIC)
>128 µM: MIC ([7]; K. pneumoniae NR-15417)
4 µM: MIC ([1]; E. faecium E417 HM-965) | MIC [1, 17] | MIC [1, 18] | MIC [1, 19] | MIC50 ([2]; 11 MRSA strains) | MIC90 ([2]; 11 MRSA strains) | MBC ([2]; MRSA NRS 1) | MIC ([2]; MRSA NRS 1) | MBC ([2]; MRSA NRS 19) | MIC ([2]; MRSA NRS 19) | MBC ([2]; MRSA NRS 37) | MIC ([2]; MRSA NRS 37) | MBC ([2]; MRSA NRS 119) | MIC ([2]; MRSA NRS 119) | MBC ([2]; MRSA NRS 382) | MIC ([2]; MRSA NRS 382) | MBC ([2]; MRSA NRS 383) | MIC ([2]; MRSA NRS 383) | MIC ([2]; MRSA NRS 384) | MBC ([2]; MRSA NRS 385) | MIC ([2]; MRSA NRS 385) | MIC ([2]; MRSA NRS 386) | MBC ([2]; MRSA NRS 387) | MIC ([2]; MRSA NRS 387) | MBC ([3]; B. cereus BAG1O-2 NR-28582) | MIC ([3]; B. cereus BAG1O-2 NR-28582) | MBC ([3]; B. cereus BAG1X2-1 NR-28578) | MBC ([3]; B. cereus G9241 NR-9564) | MIC ([3]; B. cereus G9241 NR-9564) | MBC ([3]; B. cereus VD115 NR-22148) | MIC ([3]; B. cereus VD115 NR-22148) | MBC [3, 20] | MIC [3, 20] | MIC90 [4] | MIC ([5]; read-out: MIC)
> 64 µM: MIC ([8]; ATCC10231, C. albicans ATCC 10231, unit from abstract) | MIC ([8]; C. albicans NR 29434, unit from abstract) | MIC ([8]; C. albicans NR 29435, unit from abstract) | MIC ([8]; C. albicans NR29437, unit from abstract) | MIC ([8]; C. albicans NR29438, unit from abstract) | MIC ([8]; C. albicans NR 29446, unit from abstract) | MIC ([8]; C. albicans NR 29448, unit from abstract) | MIC ([8]; C. albicans NR 29449, unit from abstract) | MIC ([8]; C. albicans NR 29453, unit from abstract) | MIC ([8]; C. albicans NR 294436, unit from abstract) | MIC ([16]; E.coli 1411) | MIC ([16]; E.coli 1411 SM (Δ acrAB, AcrAB efflux pump deficient))
> 128 µM: MIC ([6]; ATCC9721) | MIC ([6]; ATCC15442) | MIC ([7]; Klebsiella pneumoniae) | MIC ([9]; Acinetobacter baumannii, ATCCBAA747) | MIC ([9]; Acinetobacter baumannii, ATCCBAA19606) | MIC ([10]; Escherichia coli, ATCC35150) | MIC ([10]; Escherichia coli, ATCC700728) | MIC ([11]; Salmonella enterica, ATCC 700720 / TYPHIMURIUM) | MIC ([12]; Klebsiella pneumoniae, BAA2146) | MIC ([13]; Pseudomonas aeruginosa, ATCC921) | MIC ([14]; Escherichia coli, ATCC700728) | MIC ([15]; Pseudomonas aeruginosa, ATCC9721)
32 µM: MBC [1, 18]
64 µM: MBC ([1]; E. faecium E417 HM-965) | MBC ([1]; E. faecium E1071 NR-28978) | MBC [1, 17] | MBC [1, 19]
2 µM: MBC ([3]; B. cereus BAG1X1-1 NR-28575) | MIC ([3]; B. cereus BAG1X1-1 NR-28575) | MIC ([3]; B. cereus BAG1X2-1 NR-28578) | MBC ([3]; B. cereus VD014 NR-22141) | MIC ([3]; B. cereus VD014 NR-22141) | MBC ([3]; B. cereus VD148 NR-22150) | MIC ([3]; B. cereus VD148 NR-22150) | MIC50 [4]
